Test results reported in PubChem BioAssay AID334 (DTP/NCI, 2004).
Several values for one entry are separate records, joined by “and”; a condition that tells them apart may be missing. Equal entries are not always repeated. Inconclusive results and toxic doses are left out. How the source made its calls: active means survival T/C of 150% or more; inactive means T/C below 125% in these data.

Tested on: CD2F1 mice, intracerebral P388 leukemia, median survival T/C%
Experiment: NCI In Vivo Anticancer Drug Screen. Data for tumor model P388 Leukemia (intracerebral) in CD2F1 (CDF1) mice
Conditions: endpoint: median survival time, higher = longer survival
Experimental: The antitumor activity of compounds was measured in mice bearing transplantable tumors. Survival or tumor size were measured and the results are expressed as the measurement made in the treated group (T) divided by the measurement made in the vehicle treated control group (C). The tumor model used in this assay is P388 Leukemia (intracerebral) in CD2F1 (CDF1) mice

Measured: T/C

COc1cccc2c1C(=O)c1c(O)c3c(c(O)c1C2=O)CC(O)(C(=O)CO)CC3OC1CC(N)C(O)C(C)O1 (stereo not given)
inactive: dose: 0.78 mg/kg/injection, schedule: Q04DX003 (ip), vehicle: saline 107 % of control | dose: 1.56 mg/kg/injection, schedule: Q04DX003 (ip), vehicle: saline 98 % of control | dose: 3.12 mg/kg/injection, schedule: Q04DX003 (ip), vehicle: saline 106 % of control | dose: 3.75 mg/kg/injection, schedule: Q04DX003 (ip), vehicle: clinical formulation 100 % of control | dose: 3.75 mg/kg/injection, schedule: Q04DX003 (iv), vehicle: clinical formulation 100 % of control | dose: 6.25 mg/kg/injection, schedule: Q04DX003 (ip), vehicle: saline 97 % of control | dose: 7.5 mg/kg/injection, schedule: Q04DX003 (ip), vehicle: clinical formulation 103 % of control | dose: 7.5 mg/kg/injection, schedule: Q04DX003 (iv), vehicle: clinical formulation 99 % of control | dose: 12.5 mg/kg/injection, schedule: Q04DX003 (ip), vehicle: saline 103 % of control | dose: 15.0 mg/kg/injection, schedule: Q04DX003 (ip), vehicle: clinical formulation 100 % of control | dose: 15.0 mg/kg/injection, schedule: Q04DX003 (iv), vehicle: clinical formulation 106 % of control | dose: 25.0 mg/kg/injection, schedule: Q04DX003 (ip), vehicle: saline 91 % of control | dose: 30.0 mg/kg/injection, schedule: Q04DX003 (iv), vehicle: clinical formulation 90 % of control

CCCCCc1cc(O)c2c(c1)OC(C)(C)[C@@H]1CCC(C)=C[C@@H]21
inactive: dose: 2.75 mg/kg/injection, schedule: Q01DX005 (iv), vehicle: other 105 % of control | dose: 5.5 mg/kg/injection, schedule: Q01DX005 (iv), vehicle: other 101 % of control | dose: 11.0 mg/kg/injection, schedule: Q01DX005 (iv), vehicle: other 103 % of control | dose: 22.0 mg/kg/injection, schedule: Q01DX005 (iv), vehicle: other 104 % of control | dose: 44.0 mg/kg/injection, schedule: Q01DX005 (iv), vehicle: other 101 % of control

CN(C)CC(=O)c1ccc(O)c(O)c1
inactive: dose: 100.0 mg/kg/injection, schedule: Q01DX005 (ip), vehicle: saline 103 % of control | dose: 100.0 mg/kg/injection, schedule: Q01DX005 (ip), vehicle: suspension in saline 93 % of control | dose: 200.0 mg/kg/injection, schedule: Q01DX005 (ip), vehicle: saline 108 % of control | dose: 200.0 mg/kg/injection, schedule: Q01DX005 (ip), vehicle: suspension in saline 104 % of control | dose: 400.0 mg/kg/injection, schedule: Q01DX005 (ip), vehicle: saline 104 % of control | dose: 400.0 mg/kg/injection, schedule: Q01DX005 (ip), vehicle: suspension in saline 107 % of control

[N-]=[N+]=CC(=O)CCC(N)C(=O)O (stereo not given)
inactive: dose: 0.05 mg/kg/injection, schedule: Q01DX009 (ip), vehicle: saline 107 % of control | dose: 0.2 mg/kg/injection, schedule: Q01DX009 (ip), vehicle: saline 105 % of control | dose: 0.4 mg/kg/injection, schedule: Q01DX009 (ip), vehicle: saline 103 % of control

CC(=O)O[C@]1(C(C)=O)CC[C@H]2[C@@H]3C[C@H](C)C4=CC(=O)CC[C@]4(C)[C@H]3CC[C@@]21C
inactive: dose: 8.0 mg/kg/injection, schedule: Q01DX009 (ip), vehicle: Klucel (hydroxypropylcellulose) (HPC) 92 % of control and 104 % of control | dose: 16.0 mg/kg/injection, schedule: Q01DX009 (ip), vehicle: Klucel (hydroxypropylcellulose) (HPC) 100 % of control and 102 % of control | dose: 32.0 mg/kg/injection, schedule: Q01DX009 (ip), vehicle: Klucel (hydroxypropylcellulose) (HPC) 93 % of control and 103 % of control | dose: 64.0 mg/kg/injection, schedule: Q01DX009 (ip), vehicle: Klucel (hydroxypropylcellulose) (HPC) 90 % of control and 99 % of control | dose: 128.0 mg/kg/injection, schedule: Q01DX009 (ip), vehicle: Klucel (hydroxypropylcellulose) (HPC) 90 % of control and 101 % of control | dose: 256.0 mg/kg/injection, schedule: Q01DX009 (ip), vehicle: Klucel (hydroxypropylcellulose) (HPC) 96 % of control and 103 % of control

N[C@@H](Cc1ccc(N(CCCl)CCCl)cc1)C(=O)O
inactive: dose: 0.25 mg/kg/injection, schedule: Q03HX008 (ip), vehicle: saline 105 % of control | dose: 0.5 mg/kg/injection, schedule: Q03HX008 (ip), vehicle: saline 115 % of control
